Laboratory results as given in ChEMBL document CHEMBL1201862, “PubChem BioAssay data set” (2004).
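1) Cells in 96-well plates. 2) Compound, 48 h, 5 concentrations. 3) Linear interpolation between surrounding doses. 4) Unreached endpoint = highest concentration. Here, GI50 denotes the concentration required for 50% inhibition of growth.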 Activity calls are given as the source filed them. No stated cut-off is given here; in the data, active = GI50 up to about 1.1 µM and inactive = higher.

Columns and labels:
Experiment in all cases: NCI-60 cell line screen, 48 h
[1] = system: RPMI-8226
[2] = system: HT-29
[3] = system: SNB-75
[4] = system: MDA-N
[5] = system: NCI-H23
[6] = system: OVCAR-3
[7] = system: SF-295
[8] = system: SK-MEL-2
[9] = system: EKVX
[10] = system: T47D
[11] = system: HCC 2998
[12] = system: SR
[13] = system: A498
[14] = system: NCI-H226
[15] = system: OVCAR-8
[16] = system: CCRF-CEM
[17] = system: HCT-116
[18] = system: Hs-578T
[19] = system: A549
[20] = system: M14

Structure (SMILES)	GI50 [1]	GI50 [2]	GI50 [3]	GI50 [4]	GI50 [5]	GI50 [6]	GI50 [7]	GI50 [8]	GI50 [9]	GI50 [10]	GI50 [11]	GI50 [12]	GI50 [13]	GI50 [14]	GI50 [15]	GI50 [16]	GI50 [17]	GI50 [18]	GI50 [19]	GI50 [20]
COc1ccc(/N=N/C(=O)NC(CC(C)C)C(N)=O)cc1 (stereo not given)	14.8 µM (inactive)	> 100 µM (inactive)	> 100 µM (inactive)	30.2 µM (inactive)	> 100 µM (inactive)	> 50 µM (inactive)	5.58 µM (inactive)	> 100 µM (inactive)	> 100 µM (inactive)	12.2 µM (inactive)	> 31 µM (inactive)	5.64 µM (inactive)	> 31.6 µM (inactive)	> 94.4 µM (inactive)	36.9 µM (inactive)	> 27.7 µM (inactive)	> 31.6 µM (inactive)	> 100 µM (inactive)	9.14 µM (inactive)	> 28.9 µM (inactive)
C=C(CCOC)CCC1CCCCC/C1=N\N(C)C (stereo not given)	> 100 µM (inactive)	> 100 µM (inactive)	> 100 µM (inactive)	> 100 µM (inactive)	> 100 µM (inactive)	> 100 µM (inactive)	> 100 µM (inactive)	> 100 µM (inactive)	> 100 µM (inactive)	> 100 µM (inactive)	> 100 µM (inactive)	> 100 µM (inactive)	> 100 µM (inactive)	> 100 µM (inactive)	> 100 µM (inactive)	> 100 µM (inactive)	> 100 µM (inactive)	> 100 µM (inactive)	> 100 µM (inactive)	> 100 µM (inactive)
CC/C=C/C[C@H](O)[C@H]1C[C@H]2O[C@H](CC(=O)OC)C[C@H]2O1	> 100 µM (inactive)	> 100 µM (inactive)	> 100 µM (inactive)	> 100 µM (inactive)	> 100 µM (inactive)	> 100 µM (inactive)	> 100 µM (inactive)	> 100 µM (inactive)	> 100 µM (inactive)	> 100 µM (inactive)	> 100 µM (inactive)	> 100 µM (inactive)	> 100 µM (inactive)	> 100 µM (inactive)	> 100 µM (inactive)	> 100 µM (inactive)	> 100 µM (inactive)	> 100 µM (inactive)	> 100 µM (inactive)	> 100 µM (inactive)
C/C(=N\NC(=S)Nc1ccccc1)c1nc2cccnc2[nH]1	3.75 µM (inactive)	0.826 µM (active)	12.2 µM (inactive)	5.65 µM (inactive)	9.53 µM (inactive)	0.456 µM (active)	3.46 µM (inactive)	16.9 µM (inactive)	0.649 µM (active)	0.193 µM (active)	2.91 µM (inactive)	0.766 µM (active)	8.17 µM (inactive)	2.59 µM (inactive)	2.76 µM (inactive)	0.389 µM (active)	1.63 µM (inactive)	14 µM (inactive)	3.31 µM (inactive)	3.58 µM (inactive)
